This note sets out measurements from PubChem BioAssay AID1845203 (Molecular Pharmacology Branch, DTP, NCI, 2023).

The subject of the experiment is G-401 tumor spheroids, viability % test/control. Nature of the experiment: Anticancer human tumor G-401 cell line growth inhibition.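 As to all read-outs here: spheroids exposed to compound for 7 days.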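 As to viability, T/C: 100% = DMSO vehicle-treated spheroids.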 Conditions: spheroids with HUVEC and MSC; for viability, T/C: stronger effect = lower value. An outline of the steps: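 Complex tumor spheroids combined malignant cells with endothelial cells and mesenchymal stem cells. DNA-damaging drugs and DNA repair inhibitors were tested alone and in combination, at half-log dilutions down from clinical Cmax (top 10 microM if Cmax unknown), 0.25% DMSO final.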

Where [1] appears, read: curve of first compound, second compound 0.003 µM.

The structures appear in SMILES notation. “And” between values parts separate entries of the source, which are not always exact repeats. Identical values can stand only once.

The term viability, T/C denotes the ratio of treated to control. What is called IC50 is the concentration at which inhibition is half-maximal. As for `COc1cc(C)[nH]c(=O)c1CN1CCc2c(Cl)cc(C(OC)C3COC3)c(Cl)c2C1=O` (stereo unspecified), the viability, T/C is 76.2% and 80.4% and 95.5% (compound 0.0316 µM); 52.4% and 56.5% and 66.3% (compound 0.1 µM); 35.7% and 33.3% and 42.5% (compound 0.316 µM); 30.3% and 28.9% and 35.6% (compound 1 µM); 28% and 18.8% and 33.9% (compound 3.16 µM); 26.9% and 19% and 31.9% (compound 10 µM). Also, the IC50 (curve of compound) was 118 nM and 138 nM and 223 nM.

In the case of `CC1COCCN1c1cc(-c2ccnn2C)c2ccnc(-c3ccn[nH]3)c2n1` (stereo unspecified), the viability, T/C is 67% and 79% and 90.9% (compound 0.0316 µM); 34.7% and 42.4% and 56% (compound 0.1 µM); 19.1% and 24.4% and 31.2% (compound 0.316 µM); 13.1% and 17.3% and 18.1% (compound 1 µM); 16.2% and 18.7% and 19.8% (compound 3.16 µM); 18.1% and 20.2% and 22.3% (compound 10 µM). For the same compound, the IC50 (curve of compound) was 58 nM and 79 nM and 132 nM.

`Cc1sc2c(c1C)C(c1ccc(Cl)cc1)=NC(CC(=O)Nc1ccc(O)cc1)c1nnc(C)n1-2` (stereo unspecified) + CC[C@@]1(O)C(=O)OCc2c1cc1n(c2=O)Cc2cc3c(CN(C)C)c(O)ccc3nc2-1: the half-inhibitory concentration (IC50) is, setting by setting: under setting [1], 46.5 nM; (curve of first compound, second compound 0.00949 µM) less than 9.49 nM; (curve of first compound, second compound 0.03 µM) less than 9.49 nM; (curve of first compound, second compound 0.0949 µM) less than 9.49 nM; (curve of first compound, second compound 0.3 µM) less than 9.49 nM. Moreover, the viability, T/C is 72% (second compound 0.003 µM, first compound 0.00949 µM); 57.4% (second compound 0.003 µM, first compound 0.03 µM); 38.5% (second compound 0.003 µM, first compound 0.0949 µM); 25.3% (second compound 0.003 µM, first compound 0.3 µM); 15.4% (second compound 0.003 µM, first compound 0.949 µM); 6.8% (second compound 0.003 µM, first compound 3 µM). Moreover, the viability, T/C by setting is: (second compound 0.00949 µM, first compound 0.00949 µM) 38.3%; (second compound 0.00949 µM, first compound 0.03 µM) 40.3%; (second compound 0.00949 µM, first compound 0.0949 µM) 22.1%; (second compound 0.00949 µM, first compound 0.3 µM) 17%; (second compound 0.00949 µM, first compound 0.949 µM) 6.36%; (second compound 0.00949 µM, first compound 3 µM) 3.51%. Further, the viability, T/C is, setting by setting: (second compound 0.03 µM, first compound 0.00949 µM) 13.9%; (second compound 0.03 µM, first compound 0.03 µM) 11.6%; (second compound 0.03 µM, first compound 0.0949 µM) 9.1%; (second compound 0.03 µM, first compound 0.3 µM) 6.33%; (second compound 0.03 µM, first compound 0.949 µM) 3.18%; (second compound 0.03 µM, first compound 3 µM) 1.34%. Further, the viability, T/C reads like this: (second compound 0.0949 µM, first compound 0.00949 µM) 7.96%; (second compound 0.0949 µM, first compound 0.03 µM) 5.07%; (second compound 0.0949 µM, first compound 0.0949 µM) 4.63%; (second compound 0.0949 µM, first compound 0.3 µM) 2.93%; (second compound 0.0949 µM, first compound 0.949 µM) 1.21%; (second compound 0.0949 µM, first compound 3 µM) 0.82%. In addition, the viability, T/C was 4.4% (second compound 0.3 µM, first compound 0.00949 µM); 3.79% (second compound 0.3 µM, first compound 0.03 µM); 3.23% (second compound 0.3 µM, first compound 0.0949 µM); 1.9% (second compound 0.3 µM, first compound 0.3 µM); 1.03% (second compound 0.3 µM, first compound 0.949 µM); 0.5% (second compound 0.3 µM, first compound 3 µM).

Take `Cn1ncnc1[C@H]1c2n[nH]c(=O)c3cc(F)cc(c23)N[C@@H]1c1ccc(F)cc1`: the viability, T/C runs as follows: (compound 0.00949 µM) 70.3% and 90% and 80.4%; (compound 0.03 µM) 54.4% and 75.6% and 67%; (compound 0.0949 µM) 43.7% and 56% and 56.1%; (compound 0.3 µM) 28.6% and 38.6% and 34.7%; (compound 0.949 µM) 17.3% and 23.2% and 21.1%; (compound 3 µM) 12.2% and 14.5% and 11.7%. For the setting “curve of compound”, the half-maximal inhibitory concentration (IC50) is 49 nM and 143 nM and 120 nM.

`CC1COCCN1c1cc(-c2ccnn2C)c2ccnc(-c3ccn[nH]3)c2n1` (stereo unspecified) + COc1cc2c(cc1O)CCNC21CSC2c3c(OC(C)=O)c(C)c4c(c3C(COC1=O)N1C(O)C3Cc5cc(C)c(OC)c(O)c5C(C21)N3C)OCO4: the IC50 reads like this: (curve of first compound, second compound 30 pM) 39.6 nM; (curve of first compound, second compound 94.9 pM) less than 31.6 nM; (curve of first compound, second compound 0.0003 µM) less than 31.6 nM; (curve of first compound, second compound 0.000949 µM) less than 31.6 nM; under setting [1], less than 31.6 nM. Also, the viability, T/C (second compound 30 pM, first compound 0.0316 µM) was 57.3%; the viability, T/C (second compound 30 pM, first compound 0.1 µM) was 22.1%; the viability, T/C (second compound 30 pM, first compound 0.316 µM) was 12.5%; the viability, T/C (second compound 30 pM, first compound 1 µM) is 12.3%; the viability, T/C (second compound 30 pM, first compound 3.16 µM) is 14.6%; the viability, T/C (second compound 30 pM, first compound 10 µM) was 16.3%. Further, the viability, T/C by setting is: (second compound 94.9 pM, first compound 0.0316 µM) 32%; (second compound 94.9 pM, first compound 0.1 µM) 16.9%; (second compound 94.9 pM, first compound 0.316 µM) 10.8%; (second compound 94.9 pM, first compound 1 µM) 11.2%; (second compound 94.9 pM, first compound 3.16 µM) 12.9%; (second compound 94.9 pM, first compound 10 µM) 15.8%. Further, the viability, T/C by setting is: (second compound 0.0003 µM, first compound 0.0316 µM) 13.1%; (second compound 0.0003 µM, first compound 0.1 µM) 10.8%; (second compound 0.0003 µM, first compound 0.316 µM) 9.87%; (second compound 0.0003 µM, first compound 1 µM) 9.44%; (second compound 0.0003 µM, first compound 3.16 µM) 11%; (second compound 0.0003 µM, first compound 10 µM) 14%. For the same compound, the viability, T/C runs as follows: (second compound 0.000949 µM, first compound 0.0316 µM) 7.87%; (second compound 0.000949 µM, first compound 0.1 µM) 7.07%; (second compound 0.000949 µM, first compound 0.316 µM) 6.97%; (second compound 0.000949 µM, first compound 1 µM) 4.82%; (second compound 0.000949 µM, first compound 3.16 µM) 3.79%; (second compound 0.000949 µM, first compound 10 µM) 1.07%. Besides, the viability, T/C is 0.15% (second compound 0.003 µM, first compound 0.0316 µM); 0.14% (second compound 0.003 µM, first compound 0.1 µM); 0.12% (second compound 0.003 µM, first compound 0.316 µM); 0.11% (second compound 0.003 µM, first compound 1 µM); 0.11% (second compound 0.003 µM, first compound 3.16 µM); 0.17% (second compound 0.003 µM, first compound 10 µM).
